# Columns and labels:
# [1] = test system: CCRF-CEM; assay: NCI-60 anticancer screening (SRB); format: cell-based; settings: Homo sapiens, leukemia, one dose 10 μM, read-out: Growth Inhibition Percentage (GI %)
# [2] = test system: HL-60(TB); assay: NCI-60 anticancer screening (SRB); format: cell-based; settings: Homo sapiens, leukemia, one dose 10 μM, read-out: Growth Inhibition Percentage (GI %)
# [3] = test system: MOLT-4; assay: NCI-60 anticancer screening (SRB); format: cell-based; settings: Homo sapiens; MOLT-4, leukemia; one dose 10 μM; read-out: Growth Inhibition Percentage (GI %)
# [4] = test system: A549/ATCC; assay: NCI-60 anticancer screening (SRB); format: cell-based; settings: Homo sapiens; A549/ATCC, NSC lung cancer; one dose 10 μM; read-out: Growth Inhibition Percentage (GI %)
# [5] = test system: NCI-H322M; assay: NCI-60 anticancer screening (SRB); format: cell-based; settings: Homo sapiens, NSC lung cancer, one dose 10 μM, read-out: Growth Inhibition Percentage (GI %)
# [6] = test system: COLO 205; assay: NCI-60 anticancer screening (SRB); format: cell-based; settings: Homo sapiens; COLO 205, colon cancer; one dose 10 μM; read-out: Growth Inhibition Percentage (GI %)
# [7] = test system: HCC-2998; assay: NCI-60 anticancer screening (SRB); format: cell-based; settings: Homo sapiens; HCC-2998, colon cancer; one dose 10 μM; read-out: Growth Inhibition Percentage (GI %)
# [8] = test system: HCT-15; assay: NCI-60 anticancer screening (SRB); format: cell-based; settings: Homo sapiens; HCT-15, colon cancer; one dose 10 μM; read-out: Growth Inhibition Percentage (GI %)
# [9] = test system: KM 12; assay: NCI-60 anticancer screening (SRB); format: cell-based; settings: Homo sapiens, KM12; KM 12, colon cancer; one dose 10 μM; read-out: Growth Inhibition Percentage (GI %)
# [10] = test system: SW-620; assay: NCI-60 anticancer screening (SRB); format: cell-based; settings: Homo sapiens; SW-620, colon cancer; one dose 10 μM; read-out: Growth Inhibition Percentage (GI %)
# [11] = test system: MDA-MB-435; assay: NCI-60 anticancer screening (SRB); format: cell-based; settings: Homo sapiens; MDA-MB-435, melanoma; one dose 10 μM; read-out: Growth Inhibition Percentage (GI %)
# [12] = test system: SK-MEL-28; assay: NCI-60 anticancer screening (SRB); format: cell-based; settings: Homo sapiens; SK-MEL-28, melanoma; one dose 10 μM; read-out: Growth Inhibition Percentage (GI %)
# [13] = test system: UACC-62; assay: NCI-60 anticancer screening (SRB); format: cell-based; settings: Homo sapiens; UACC-62, melanoma; one dose 10 μM; read-out: Growth Inhibition Percentage (GI %)
# [14] = test system: OVCAR-3; assay: NCI-60 anticancer screening (SRB); format: cell-based; settings: Homo sapiens; OVCAR-3, ovarian cancer; one dose 10 μM; read-out: Growth Inhibition Percentage (GI %)
# [15] = test system: OVCAR-4; assay: NCI-60 anticancer screening (SRB); format: cell-based; settings: Homo sapiens; OVCAR-4, ovarian cancer; one dose 10 μM; read-out: Growth Inhibition Percentage (GI %)
# [16] = test system: OVCAR-8; assay: NCI-60 anticancer screening (SRB); format: cell-based; settings: Homo sapiens; OVCAR-8, ovarian cancer; one dose 10 μM; read-out: Growth Inhibition Percentage (GI %)
# [17] = test system: NCI/ADR-RES; assay: NCI-60 anticancer screening (SRB); format: cell-based; settings: Homo sapiens, ovarian cancer, one dose 10 μM, read-out: Growth Inhibition Percentage (GI %)
# [18] = test system: SK-OV-3; assay: NCI-60 anticancer screening (SRB); format: cell-based; settings: Homo sapiens; SK-OV-3, ovarian cancer; one dose 10 μM; read-out: Growth Inhibition Percentage (GI %)
# [19] = test system: RXF 393; assay: NCI-60 anticancer screening (SRB); format: cell-based; settings: Homo sapiens; RXF 393, renal cancer; one dose 10 μM; read-out: Growth Inhibition Percentage (GI %)
# [20] = test system: TK-10; assay: NCI-60 anticancer screening (SRB); format: cell-based; settings: Homo sapiens; TK-10, renal cancer; one dose 10 μM; read-out: Growth Inhibition Percentage (GI %)
# [21] = test system: UO-31; assay: NCI-60 anticancer screening (SRB); format: cell-based; settings: Homo sapiens; UO-31, renal cancer; one dose 10 μM; read-out: Growth Inhibition Percentage (GI %)
# [22] = test system: PC-3; assay: NCI-60 anticancer screening (SRB); format: cell-based; settings: Homo sapiens; PC-3, prostate cancer; one dose 10 μM; read-out: Growth Inhibition Percentage (GI %)
# [23] = test system: MCF7; assay: NCI-60 anticancer screening (SRB); format: cell-based; settings: Homo sapiens; MCF7, breast cancer; one dose 10 μM; read-out: Growth Inhibition Percentage (GI %)
# [24] = test system: MDA-MB-231; assay: NCI-60 anticancer screening (SRB); format: cell-based; settings: Homo sapiens; MDA-MB-231, breast cancer; one dose 10 μM; read-out: Growth Inhibition Percentage (GI %)
# [25] = test system: HS 578T; assay: NCI-60 anticancer screening (SRB); format: cell-based; settings: Homo sapiens; HS 578T, breast cancer; one dose 10 μM; read-out: Growth Inhibition Percentage (GI %)
# [26] = test system: BT-549; assay: NCI-60 anticancer screening (SRB); format: cell-based; settings: Homo sapiens; BT-549, breast cancer; one dose 10 μM; read-out: Growth Inhibition Percentage (GI %)
# [27] = test system: MDA-MB-468; assay: NCI-60 anticancer screening (SRB); format: cell-based; settings: Homo sapiens; MDA-MB-468, breast cancer; one dose 10 μM; read-out: Growth Inhibition Percentage (GI %)
# [28] = test system: NCI 60 cancer cell lines; assay: NCI-60 anticancer screening (SRB), whole panel; format: cell-based, human; settings: mean across the NCI-60 panel; one dose 10 μM
# [29] = target: EGFR^T790M (Homo sapiens, UniProt P00533, T790M); assay: biochemical
# EGFR^T790M, sequence (P00533 25-1210 T790M): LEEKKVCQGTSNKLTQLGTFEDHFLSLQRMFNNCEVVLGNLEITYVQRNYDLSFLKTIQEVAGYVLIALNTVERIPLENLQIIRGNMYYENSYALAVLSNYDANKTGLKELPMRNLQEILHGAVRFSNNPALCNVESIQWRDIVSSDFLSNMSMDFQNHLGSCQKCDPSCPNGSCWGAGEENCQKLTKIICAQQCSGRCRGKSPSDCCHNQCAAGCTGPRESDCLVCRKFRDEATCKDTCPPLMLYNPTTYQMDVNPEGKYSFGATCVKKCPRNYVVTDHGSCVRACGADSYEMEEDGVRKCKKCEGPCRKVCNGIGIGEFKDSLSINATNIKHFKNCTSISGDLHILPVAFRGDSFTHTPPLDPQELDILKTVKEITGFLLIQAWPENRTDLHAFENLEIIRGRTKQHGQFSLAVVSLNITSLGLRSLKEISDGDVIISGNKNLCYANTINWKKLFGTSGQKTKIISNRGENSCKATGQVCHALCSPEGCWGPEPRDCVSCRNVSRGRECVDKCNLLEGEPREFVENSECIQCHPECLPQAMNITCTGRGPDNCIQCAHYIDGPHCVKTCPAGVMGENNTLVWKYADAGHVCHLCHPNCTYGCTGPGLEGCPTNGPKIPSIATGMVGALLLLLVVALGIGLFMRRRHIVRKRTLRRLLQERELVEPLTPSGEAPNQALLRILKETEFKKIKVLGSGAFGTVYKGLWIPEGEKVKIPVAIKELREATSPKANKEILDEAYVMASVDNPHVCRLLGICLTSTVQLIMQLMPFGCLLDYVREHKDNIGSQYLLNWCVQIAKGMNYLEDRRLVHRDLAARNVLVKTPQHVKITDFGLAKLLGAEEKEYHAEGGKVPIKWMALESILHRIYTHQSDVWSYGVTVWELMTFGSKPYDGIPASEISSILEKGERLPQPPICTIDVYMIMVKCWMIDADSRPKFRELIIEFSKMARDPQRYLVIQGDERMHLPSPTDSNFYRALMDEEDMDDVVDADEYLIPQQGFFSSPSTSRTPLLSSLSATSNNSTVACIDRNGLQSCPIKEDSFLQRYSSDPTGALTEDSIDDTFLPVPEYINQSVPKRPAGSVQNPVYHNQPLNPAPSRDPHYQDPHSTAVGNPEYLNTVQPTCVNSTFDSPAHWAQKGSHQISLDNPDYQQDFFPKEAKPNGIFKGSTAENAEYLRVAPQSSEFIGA
# [30] = target: EGFR^L858R (Homo sapiens, UniProt P00533, L858R); assay: biochemical
# EGFR^L858R, sequence (P00533 25-1210 L858R): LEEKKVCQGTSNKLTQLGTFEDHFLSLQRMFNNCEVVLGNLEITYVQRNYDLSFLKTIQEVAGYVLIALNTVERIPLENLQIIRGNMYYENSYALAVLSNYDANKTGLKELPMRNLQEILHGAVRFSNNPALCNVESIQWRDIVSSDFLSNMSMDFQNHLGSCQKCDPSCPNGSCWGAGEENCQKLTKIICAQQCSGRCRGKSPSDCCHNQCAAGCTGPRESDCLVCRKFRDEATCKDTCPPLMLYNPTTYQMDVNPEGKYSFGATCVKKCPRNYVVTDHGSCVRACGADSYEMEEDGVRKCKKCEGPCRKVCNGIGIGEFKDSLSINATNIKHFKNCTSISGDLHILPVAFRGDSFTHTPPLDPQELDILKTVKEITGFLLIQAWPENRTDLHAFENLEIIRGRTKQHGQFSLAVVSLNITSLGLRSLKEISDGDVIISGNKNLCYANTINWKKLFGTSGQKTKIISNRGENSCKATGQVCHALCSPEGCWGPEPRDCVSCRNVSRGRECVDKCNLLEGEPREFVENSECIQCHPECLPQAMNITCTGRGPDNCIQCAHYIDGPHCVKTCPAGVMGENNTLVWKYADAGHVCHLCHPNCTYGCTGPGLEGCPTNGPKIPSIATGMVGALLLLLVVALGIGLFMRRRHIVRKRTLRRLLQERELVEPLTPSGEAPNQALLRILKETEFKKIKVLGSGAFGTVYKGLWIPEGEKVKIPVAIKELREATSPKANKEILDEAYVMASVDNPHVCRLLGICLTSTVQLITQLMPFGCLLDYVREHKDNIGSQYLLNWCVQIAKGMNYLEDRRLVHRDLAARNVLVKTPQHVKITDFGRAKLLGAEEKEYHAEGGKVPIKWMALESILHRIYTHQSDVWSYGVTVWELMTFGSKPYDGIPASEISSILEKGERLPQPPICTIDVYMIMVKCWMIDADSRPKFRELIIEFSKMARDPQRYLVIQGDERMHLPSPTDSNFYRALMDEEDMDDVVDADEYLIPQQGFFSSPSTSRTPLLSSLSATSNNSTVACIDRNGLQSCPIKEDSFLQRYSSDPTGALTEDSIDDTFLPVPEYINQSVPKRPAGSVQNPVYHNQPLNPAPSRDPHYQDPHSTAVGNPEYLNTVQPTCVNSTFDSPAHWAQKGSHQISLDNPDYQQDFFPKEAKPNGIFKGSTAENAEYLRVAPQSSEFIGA
# [31] = target: EGFR^WT (Homo sapiens, UniProt P00533); assay: EGFR kinase inhibitory assay (HTRF)
# EGFR^WT, sequence (P00533 25-1210): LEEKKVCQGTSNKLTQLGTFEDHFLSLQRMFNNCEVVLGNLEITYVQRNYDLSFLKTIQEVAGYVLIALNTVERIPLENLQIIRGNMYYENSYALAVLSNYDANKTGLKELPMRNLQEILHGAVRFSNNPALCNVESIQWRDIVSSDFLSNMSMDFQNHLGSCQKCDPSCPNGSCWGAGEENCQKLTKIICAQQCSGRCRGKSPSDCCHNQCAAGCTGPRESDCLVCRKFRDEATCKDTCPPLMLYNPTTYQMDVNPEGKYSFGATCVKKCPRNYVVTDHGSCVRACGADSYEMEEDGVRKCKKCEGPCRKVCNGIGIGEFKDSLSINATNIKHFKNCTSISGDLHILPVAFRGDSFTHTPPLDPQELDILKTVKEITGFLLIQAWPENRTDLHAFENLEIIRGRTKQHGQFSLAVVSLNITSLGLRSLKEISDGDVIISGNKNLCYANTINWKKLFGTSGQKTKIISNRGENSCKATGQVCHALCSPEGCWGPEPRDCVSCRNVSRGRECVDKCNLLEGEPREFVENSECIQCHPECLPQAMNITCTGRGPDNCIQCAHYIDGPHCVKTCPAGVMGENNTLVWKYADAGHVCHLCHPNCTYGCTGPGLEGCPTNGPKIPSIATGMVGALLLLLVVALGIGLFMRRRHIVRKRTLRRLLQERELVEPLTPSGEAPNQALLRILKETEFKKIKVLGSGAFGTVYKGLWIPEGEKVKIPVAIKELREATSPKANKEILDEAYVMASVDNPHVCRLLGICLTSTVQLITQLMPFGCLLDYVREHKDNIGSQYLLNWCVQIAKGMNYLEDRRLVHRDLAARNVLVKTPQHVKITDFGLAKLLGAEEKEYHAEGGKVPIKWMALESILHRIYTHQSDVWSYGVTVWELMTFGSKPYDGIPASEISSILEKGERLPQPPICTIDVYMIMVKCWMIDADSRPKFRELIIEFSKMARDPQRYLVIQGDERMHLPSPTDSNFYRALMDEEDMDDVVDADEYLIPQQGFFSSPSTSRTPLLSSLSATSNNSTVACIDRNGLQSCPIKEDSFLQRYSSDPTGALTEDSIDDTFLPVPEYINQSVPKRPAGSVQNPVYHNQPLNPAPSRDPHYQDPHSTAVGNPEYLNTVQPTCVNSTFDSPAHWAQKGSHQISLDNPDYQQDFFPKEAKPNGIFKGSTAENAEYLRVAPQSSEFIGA
structure (smiles),measurement,setting,value
"CCOC(=O)C1=C(N)N(c2ccc(Cl)cc2)C2=C(C(=O)CC(C)(C)C2)C1c1ccccc1Br (racemic) [6f, (±)-Ethyl 2-amino-4–(2-bromophenyl)-1–(4-chlorophenyl)-7,7-dimethyl-5-oxo-1,4,5,6,7,8-hexahydroquinoline-3-carboxylate]",inhibition at 10 µM,[1],33%
same,inhibition at 10 µM,[2],68%
same,inhibition at 10 µM,[3],< 10%
same,inhibition at 10 µM,[4],31%
same,inhibition at 10 µM,[5],< 10%
same,inhibition at 10 µM,[6],45%
same,inhibition at 10 µM,[7],< 10%
same,inhibition at 10 µM,[8],53%
same,inhibition at 10 µM,[9],40%
same,inhibition at 10 µM,[10],38%
same,inhibition at 10 µM,[11],< 10%
same,inhibition at 10 µM,[12],< 10%
same,inhibition at 10 µM,[13],36%
same,inhibition at 10 µM,[14],31%
same,inhibition at 10 µM,[15],25%
same,inhibition at 10 µM,[16],14%
same,inhibition at 10 µM,[17],14%
same,inhibition at 10 µM,[18],< 10%
same,inhibition at 10 µM,[19],< 10%
same,inhibition at 10 µM,[20],22%
same,inhibition at 10 µM,[21],40%
same,inhibition at 10 µM,[22],71%
same,inhibition at 10 µM,[23],47%
same,inhibition at 10 µM,[24],15%
same,inhibition at 10 µM,[25],< 10%
same,inhibition at 10 µM,[26],27%
same,inhibition at 10 µM,[27],53%
same,GI % mean,[28],24%
same,IC50,[29],590 ± 4 nM
same,IC50,[30],480 ± 3 nM
same,IC50,[31],313 ± 120 nM
